Patent US20060246163A1, “TREATMENT OF INSULIN RESISTANCE SYNDROME” (TG BIOTECH, priority 2005, published 2006)

Key:
Assay type in all cases: cell-based
AMPK = AMPK phosphorylation (threonine 172) in L6 myotube cells, immunoblot; settings: 1 mM, high glucose
Procedure: L6 myotube cells were treated with 60 μg/mL of GP and incubated for the period of time indicated. Cells were lysed in lysis buffer and cytosolic proteins were resolved by SDS-PAGE, protein bands were transferred onto a nitrocellulose membrane, and phospho-AMPK was analyzed with specific antibodies. 1) control cells with no treatment; 2) cells treated with GP for 30 min; 3) cells treated with GP for 1 h; 3) cells with treated with GP for 2 hs.
(§2) The kinase activities were evaluated with specific antibodies. 1) control; 2) GP 30 μg/mL; 3) GP 60 μg/mL; 4) AICAR 1 mM.
We treated GP on L6 myotube cells to determine whether the treatment activates AMPK activity. Activation of AMPK was estimated by the increase in the phosphorylation on the threonine^172 residue of AMPK using specific antibodies. […] Cells were pretreated with high glucose (27.5 mM) to induce insulin resistance and to repress AMPK activation (Itani, 2003).
(§3) L6 cells were differentiated into mature muscle cells in a low serum condition (2%, v/v). AICAR was used as an internal positive control. Once drug treatments were completed, cells were harvested, subjected to be lysated, and equal amount of proteins from each treatment was loaded on gels for analyzing AMPK and p38 MAPK activity levels (FIG. 7). Total AMPK protein was also immunoblotted to make sure that equal amount of protein was loaded on the gels.

p38 MAPK = p38 MAPK activation in L6 cells; settings: GP 30, 60 μg/mL; AICAR 1 mM
Procedure: as §2, §3
We investigated whether GP is able to activate p38 MAPK in L6 cells.

ACC = ACC Ser79 phosphorylation in L6 myotube cells; settings: GP 30, 60, 100 μg/mL; AICAR 1 mM; insulin 100 nM
Procedure: (§1) 1) control; 2) GP 30 μg/mL; 3) GP 60 μg/mL; 4) GP 100 μg/mL; 5) AICAR 1 mM; 6) insulin 100 nM.
L6 myotube cells were treated with GP and AICAR.

AKT = AKT phosphorylation/activity in L6 cells; settings: GP 30, 60, 100 μg/mL; AICAR 1 mM; insulin 100 nM
Procedure: as §1
AKT (also called protein kinase B, PKB) phosphorylation is catalyzed by PI3K in insulin signal pathway. Whether GP treatment on the muscle cells affects AKT activity was tested.

IKKβ = IKKβ phosphorylation/activity in L6 myotube cells in the presence of tunicamycin; settings: GP 30, 60 μg/mL, AICAR 1 mM, insulin 100 nM
Procedure: The cytosolic fraction was subjected on SDS-PAGE and blotted on nitrocellulose membrane. The membrane was incubated with anti-phospho-IKKβ (S^177/181), anti-phospho IRS1 (S^307), and anti-phospho SAPK/JNK (T^183) antibodies. 1) control cells with no treatment; 2) L6 cells treated with tunicamycin; 3) cells treated with 30 μg/mL GP in the presence of tunicamycin; 4) cells treated with 60 μg/mL GP in the presence of tunicamycin; 5) cells treated with 1 mM AICAR in the presence of tunicamycin; 6) cells incubated with 100 nM insulin in the presence of tunicamycin; 7) cells incubated with 100 nM insulin in the absence of tunicamycin.
The effect of GP on the phosphorylation of IKKβ in L6 myotube cells in the presence of tunicamycin was evaluated. The cytosolic fraction was subjected to SDS-PAGE and blotted on nitrocellulose membrane. The cytosolic fraction was subjected to SDS-PAGE and blotted on nitrocellulose membrane. The membrane was incubated with anti-phospho-IKKβ (S^177/181), anti-phospho IRS1 (S^307), and anti-phospho SAPK/JNK (T^183) antibodies.

JNK = JNK activity in L6 myotube cells, phospho JNK immunoblot; settings: 2 hs; GP 30, 60 μg/mL; AICAR 1 mM; insulin 100 nM
Procedure: L6 myotube cells were treated with GP for 2 hs. Cytosolic fraction was immunoblotted against phospho JNK antibodies. 1) control cells with no treatment; 2) GP 30 μg/ mL; 3) GP 60 μg/ mL; 4) AICAR 1 mM; 5) insulin 100 nM. We also investigated effects of GP treatment on JNK activity in L6 myotube cells.

L6 myotube cells = test: 2-deoxyglucose uptake in L6 myotube cells; settings: high glucose; GP 60 μg/mL 2 hs, AICAR 1 mM 1 h, insulin 100 nM 20 min
Procedure: Examples 1-5 indicate that GP would increase glucose uptake regardless of the presence of insulin. To measure the glucose uptake in vitro, we performed 2-deoxyglucose uptake experiment. Since 2-deoxyglucose is not metabolized inside cells, radiolabeled 2-deoxyglucose was used for measuring glucose uptake experiment. Whether GP increases glucose uptake in L6 myotube cells was investigated. Prior to adding the materials, the cells were incubated in the presence of high glucose, since high glucose is known to obstruct glucose uptake in muscle […] (60 μg/mL), AICAR (1 mM) and insulin (100 nM) were incubated for 2 hs, 1 h and 20 min, respectively. Immediately after washing in Hepes buffered saline (HBS), the cells were incubated with 2-deoxyglucose (10 μM) in HBS for 10 min. Extensive washing was preceded before measuring radioactivity in scintillation counter. The uptake unit was estimated by the total counts of incubation.

| Compound | Phosphorylation level of AMPK (AMPK) | p38 MAPK activation (p38 MAPK) | Phosphorylation of Ser79 of ACC (ACC) | AKT activity (phosphorylation) (AKT) | Serine phosphorylation / activity of IKKβ (IKKβ) | JNK activity (JNK) | Increase of 2-deoxyglucose uptake, on average (L6 myotube cells) [%] |
| --- | --- | --- | --- | --- | --- | --- | --- |
| NC(=O)c1ncn([C@@H]2O[C@H](COP(=O)(O)O)[C@@H](O)[C@H]2O)c1N [AICAR, 5′-phosphoribosyl-5-aminoimidazole-4-carboxamide] | comparable to that of 60 μg/mL of GP | exhibited p38 activation | increased the phosphorylation of ACC but slightly less than that observed with 30 μg/mL of GP | Neither GP nor AICAR appeared to affect AKT activity | slightly reduced | not affected | 42 |
| insulin: hormone used as positive marker/control for GLUT4 translocation and AKT activation | – | – | did not affect the phosphorylation | activated AKT activity considerably | slightly reduced | not affected | 40 |
